Experimental data: the NIST ThermoML archive (doi:10.1021/acs.jced.5b00348)
Several values for one entry are separate records, joined by “and”; a condition that tells them apart may be missing. Equal entries are not always repeated.

Conditions: for vapor or sublimation pressure: Closed cell (Static) method

FC(F)(F)/C=C/Cl [(E)-1-chloro-3,3,3-trifluoroprop-1-ene]
Conditions | mass density [kg/m3] | speed of sound
215.01 K, 1815.3 kPa, Liquid | 1449.31 | –
220 K, 1921.7 kPa, Liquid | 1439.12 | –
220 K, 8321.7 kPa, Liquid | 1447.77 | –
225 K, 8257.8 kPa, Liquid | 1437.64 | –
230 K, 14558 kPa, Liquid | 1436.27 | –
235 K, 1363.6 kPa, Liquid | 1406.94 | –
235 K, 5155.5 kPa, Liquid | 1412.84 | –
235 K, 10102 kPa, Liquid | 1420.19 | –
235 K, 15131 kPa, Liquid | 1427.32 | –
235 K, 20809 kPa, Liquid | 1434.98 | –
240 K, 7088 kPa, Liquid | 1405.56 | –
245 K, 12803 kPa, Liquid | 1404.29 | –
250 K, 18468 kPa, Liquid | 1403.09 | –
255 K, 1176.9 kPa, Liquid | 1363.85 | –
255 K, 5115 kPa, Liquid | 1371.16 | –
255 K, 10377 kPa, Liquid | 1380.36 | –
255 K, 15392 kPa, Liquid | 1388.62 | –
255 K, 21124 kPa, Liquid | 1397.53 | –
255 K, 24078 kPa, Liquid | 1401.93 | –
260 K, 6173.2 kPa, Liquid | 1362.59 | –
265 K, 11152 kPa, Liquid | 1361.41 | –
270 K, 16100 kPa, Liquid | 1360.29 | –
275 K, 1267.3 kPa, Liquid | 1319.85 | –
275 K, 4966.8 kPa, Liquid | 1328.13 | –
275 K, 10048 kPa, Liquid | 1338.72 | –
275 K, 15054 kPa, Liquid | 1348.44 | –
275 K, 21020 kPa, Liquid | 1359.23 | –
280 K, 5624.6 kPa, Liquid | 1318.7 | –
285 K, 9970.2 kPa, Liquid | 1317.63 | –
289.99 K, 80.81 kPa, Gas | – | 137.76 m/s
290.01 K, 14296 kPa, Liquid | 1316.62 | –
290.06 K, 80.8 kPa, Gas | – | 137.77 m/s
295 K, 1205.6 kPa, Liquid | 1273.49 | –
295 K, 5284 kPa, Liquid | 1284.64 | –
295 K, 10000 kPa, Liquid | 1296.45 | –
295 K, 14695 kPa, Liquid | 1307.26 | –
295 K, 18582 kPa, Liquid | 1315.63 | –
299.99 K, 4671.2 kPa, Liquid | 1271.6 | –
300 K, 4941.7 kPa, Liquid | 1272.36 | –
300.01 K, 79.96 kPa, Gas | – | 140.51 m/s
300.01 K, 80 kPa, Gas | – | 140.52 m/s
300.01 K, 113.38 kPa, Gas | – | 138.9 m/s
300.02 K, 113.38 kPa, Gas | – | 138.9 m/s
305 K, 8702.1 kPa, Liquid | 1271.4 | –
309.99 K, 12156 kPa, Liquid | 1269.71 | –
309.99 K, 12442 kPa, Liquid | 1270.47 | –
314.99 K, 8185.4 kPa, Liquid | 1247.49 | –
314.99 K, 16168 kPa, Liquid | 1269.57 | –
315 K, 1207.6 kPa, Liquid | 1224.52 | –
315 K, 4179.3 kPa, Liquid | 1234.82 | –
315 K, 11929 kPa, Liquid | 1258.3 | –
319.59 K, 129.53 kPa, Gas | – | 143.66 m/s
319.59 K, 183.14 kPa, Gas | – | 141.46 m/s
319.6 K, 129.45 kPa, Gas | – | 143.67 m/s
319.6 K, 150.69 kPa, Gas | – | 142.81 m/s
319.6 K, 150.7 kPa, Gas | – | 142.81 m/s
319.6 K, 183.09 kPa, Gas | – | 141.46 m/s
319.6 K, 183.12 kPa, Gas | – | 141.46 m/s
319.61 K, 68.35 kPa, Gas | – | 146.03 m/s
319.61 K, 129.45 kPa, Gas | – | 143.67 m/s
319.61 K, 215.09 kPa, Gas | – | 140.12 m/s
319.61 K, 215.18 kPa, Gas | – | 140.11 m/s
319.61 K, 215.23 kPa, Gas | – | 140.11 m/s
319.62 K, 68.35 kPa, Gas | – | 146.03 m/s
319.99 K, 4450.8 kPa, Liquid | 1223.61 | –
319.99 K, 19560 kPa, Liquid | 1267.92 | –
325 K, 7686.4 kPa, Liquid | 1222.74 | –
330 K, 10903 kPa, Liquid | 1221.9 | –
335.01 K, 948 kPa, Liquid | 1170.3 | –
335.01 K, 4081.7 kPa, Liquid | 1184.44 | –
335.01 K, 7985.8 kPa, Liquid | 1199.99 | –
335.01 K, 11894 kPa, Liquid | 1213.83 | –
335.01 K, 14112 kPa, Liquid | 1221.09 | –
339.43 K, 353.83 kPa, Gas | – | 140.91 m/s
339.44 K, 145.11 kPa, Gas | – | 148.28 m/s
339.44 K, 267.82 kPa, Gas | – | 144.07 m/s
339.44 K, 267.83 kPa, Gas | – | 144.07 m/s
339.44 K, 267.89 kPa, Gas | – | 144.07 m/s
339.44 K, 353.63 kPa, Gas | – | 140.92 m/s
339.44 K, 353.76 kPa, Gas | – | 140.91 m/s
339.45 K, 144.98 kPa, Gas | – | 148.29 m/s
339.45 K, 145.24 kPa, Gas | – | 148.28 m/s
339.45 K, 267.8 kPa, Gas | – | 144.08 m/s
339.45 K, 267.82 kPa, Gas | – | 144.08 m/s
339.47 K, 199.9 kPa, Gas | – | 146.45 m/s
339.47 K, 268.41 kPa, Gas | – | 144.06 m/s
339.47 K, 321.82 kPa, Gas | – | 142.12 m/s
339.47 K, 447.53 kPa, Gas | – | 137.13 m/s
339.48 K, 199.88 kPa, Gas | – | 146.45 m/s
339.48 K, 268.39 kPa, Gas | – | 144.06 m/s
339.48 K, 268.43 kPa, Gas | – | 144.06 m/s
339.48 K, 322.03 kPa, Gas | – | 142.12 m/s
339.48 K, 374.34 kPa, Gas | – | 140.12 m/s
339.48 K, 447.52 kPa, Gas | – | 137.13 m/s
339.48 K, 447.57 kPa, Gas | – | 137.13 m/s
339.49 K, 85.51 kPa, Gas | – | 150.21 m/s
339.49 K, 85.52 kPa, Gas | – | 150.22 m/s
339.49 K, 322.01 kPa, Gas | – | 142.12 m/s
340 K, 3674.5 kPa, Liquid | 1169.48 | –
345.01 K, 6402.5 kPa, Liquid | 1168.7 | –
349.98 K, 366.9 kPa, Gas | 17.985 | –
350 K, 9119.8 kPa, Liquid | 1167.95 | –
355.01 K, 990.8 kPa, Liquid | 1111.28 | –
355.01 K, 2028.5 kPa, Liquid | 1117.99 | –
355.01 K, 3980.1 kPa, Liquid | 1129.59 | –
355.01 K, 6026.4 kPa, Liquid | 1140.59 | –
355.01 K, 8135 kPa, Liquid | 1150.94 | –
355.01 K, 9972.9 kPa, Liquid | 1159.29 | –
355.01 K, 11833 kPa, Liquid | 1167.22 | –
359.44 K, 307.1 kPa, Gas | – | 148.62 m/s
359.44 K, 400.17 kPa, Gas | – | 145.8 m/s
359.44 K, 400.23 kPa, Gas | – | 145.8 m/s
359.44 K, 500.35 kPa, Gas | – | 142.58 m/s
359.44 K, 596.92 kPa, Gas | – | 139.26 m/s
359.45 K, 307.02 kPa, Gas | – | 148.63 m/s
359.45 K, 307.4 kPa, Gas | – | 148.62 m/s
359.45 K, 400.08 kPa, Gas | – | 145.81 m/s
359.45 K, 500.35 kPa, Gas | – | 142.58 m/s and 142.58 m/s
359.45 K, 596.94 kPa, Gas | – | 139.26 m/s
359.45 K, 596.95 kPa, Gas | – | 139.26 m/s
359.98 K, 499.3 kPa, Gas | 24.386 | –
360 K, 387.4 kPa, Gas | 18.379 | –
360 K, 916.6 kPa, Fluid (supercritical or subcritical phases) | 1094.63 | –
360 K, 3249 kPa, Liquid | 1110.57 | –
364 K, 2629 kPa, Fluid (supercritical or subcritical phases) | 1094.08 | –
365.01 K, 5510.3 kPa, Liquid | 1109.87 | –
368 K, 1297.9 kPa, Fluid (supercritical or subcritical phases) | 1070.52 | –
368 K, 4345.4 kPa, Fluid (supercritical or subcritical phases) | 1093.56 | –
370 K, 523.6 kPa, Gas | 24.719 | –
370.01 K, 524 kPa, Gas | 24.736 | –
370.01 K, 7766.7 kPa, Liquid | 1109.2 | –
370.02 K, 407.6 kPa, Gas | 18.73 | –
372 K, 2880.6 kPa, Fluid (supercritical or subcritical phases) | 1070 | –
375.01 K, 2017.2 kPa, Liquid | 1052.12 | –
375.01 K, 4033.7 kPa, Liquid | 1069.29 | –
375.01 K, 5918 kPa, Liquid | 1083.16 | –
375.01 K, 7957.7 kPa, Liquid | 1096.46 | –
375.01 K, 10021 kPa, Liquid | 1108.53 | –
376 K, 1522.5 kPa, Fluid (supercritical or subcritical phases) | 1043.77 | –
376 K, 4464.2 kPa, Fluid (supercritical or subcritical phases) | 1069.49 | –
379.77 K, 81.05 kPa, Gas | – | 159.47 m/s and 159.47 m/s
379.77 K, 81.06 kPa, Gas | – | 159.48 m/s
379.77 K, 201.41 kPa, Gas | – | 156.72 m/s

Liquid
Conditions | vapor or sublimation pressure [kPa]
280.01 K | 65.1
290.01 K | 96.5
300 K | 139
310.01 K | 194.9
320.02 K | 267.1
330.01 K | 357.9
340.01 K | 470.7
350.02 K | 608.7
360.02 K | 775
370.03 K | 973.2
